Read-outs that look alike come from different tables or passages of the source.
Tests used:
DYRK1A = DYRK1A (Homo sapiens (Human), UniProt Q13627); assay: DYRK1A kinase assay (HotSpot, Reaction Biology); assay type: biochemical; conditions: purified recombinant kinase, 10 μM ATP, room temperature 120 min
DYRK1B = DYRK1B (Homo sapiens (Human), UniProt Q9Y463); assay: DYRK1B kinase assay (HotSpot, Reaction Biology); assay type: biochemical
[1] = purified recombinant kinase, 10 μM ATP, room temperature 120 min

Chain of DYRK1B (Q9Y463 whole entry): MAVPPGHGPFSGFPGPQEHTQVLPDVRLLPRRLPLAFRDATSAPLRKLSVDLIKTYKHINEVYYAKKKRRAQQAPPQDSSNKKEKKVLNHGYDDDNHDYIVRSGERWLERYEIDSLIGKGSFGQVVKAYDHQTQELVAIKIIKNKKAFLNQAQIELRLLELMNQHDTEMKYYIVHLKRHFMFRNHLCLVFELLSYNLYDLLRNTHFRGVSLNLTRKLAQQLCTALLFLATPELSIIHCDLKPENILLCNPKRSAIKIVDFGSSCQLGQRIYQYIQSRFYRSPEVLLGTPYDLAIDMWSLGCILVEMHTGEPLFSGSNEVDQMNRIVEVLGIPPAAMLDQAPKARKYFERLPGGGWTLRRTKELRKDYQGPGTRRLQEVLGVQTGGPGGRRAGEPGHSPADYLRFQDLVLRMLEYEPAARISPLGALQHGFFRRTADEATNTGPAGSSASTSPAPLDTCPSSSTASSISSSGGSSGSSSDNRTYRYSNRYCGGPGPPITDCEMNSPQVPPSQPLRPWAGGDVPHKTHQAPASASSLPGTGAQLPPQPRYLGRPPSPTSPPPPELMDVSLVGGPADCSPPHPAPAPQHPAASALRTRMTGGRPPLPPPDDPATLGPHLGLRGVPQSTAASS

| SMILES | IC50 (DYRK1A) [nM] | IC50 (DYRK1B; [1]) [nM] | IC50 (DYRK1B) [nM] |
| --- | --- | --- | --- |
| CN(C)C(=N)c1nc2ccc3ncnc(Nc4ccc(F)c(Cl)c4)c3c2s1 [Compound 7, 9-(3-Chloro-4-fluorophenylamino)-N,N-dimethylthiazolo[5,4-f]quinazoline-2-carboximidamide] | 1000 to 10000 |  |  |
| CN(C)C(=N)c1nc2ccc3ncnc(Nc4ccc(Br)cc4F)c3c2s1 [Compound 14] | 147 |  |  |
| N=C(NCc1ccc(F)cc1)c1nc2ccc3ncnc(Nc4ccc(Br)cc4F)c3c2s1 [Compound 16, 9-(4-Bromo-2-fluorophenylamino)-N-(4-fluorobenzyl)thiazolo[5,4-f]quinazoline-2-carboximidamide] | 1000 to 10000 |  |  |
| N=C(NCc1ccncc1)c1nc2ccc3ncnc(Nc4ccc(Br)cc4F)c3c2s1 [Compound 19, 9-(4-Bromo-2-fluorophenylamino)-N-(pyridin-4-ylmethyl)thiazolo[5,4-f]quinazoline-2-carboximidamide] | 1000 to 10000 |  |  |
| N=C(NCCN1CCOCC1)c1nc2ccc3ncnc(Nc4ccc5c(c4)OCO5)c3c2s1 [Compound 29, 9-(Benzo[d][1,3]dioxol-5-ylamino)-N-(2-morpholinoethyl)thiazolo[5,4-f]quinazoline-2-carboximidamide] | 1000 to 10000 |  |  |
| N=C(NCCN1CCCCC1)c1nc2ccc3ncnc(Nc4ccc5c(c4)OCO5)c3c2s1 [Compound 30, 9-(Benzo[d][1,3]dioxol-5-ylamino)-N-(2-(piperidin-1-yl)ethyl)thiazolo[5,4-f]quinazoline-2-carboximidamide] | 1000 to 10000 |  |  |
| CN(C)CCNC(=N)c1nc2ccc3ncnc(Nc4ccc5c(c4)OCO5)c3c2s1 [Compound 33, 9-(Benzo[d][1,3]dioxol-5-ylamino)-N-(2-(dimethylamino)ethyl)thiazolo[5,4-f]quinazoline-2-carboximidamide] | 431 |  |  |
| CCN(CC)CCNC(=N)c1nc2ccc3ncnc(Nc4ccc5c(c4)OCO5)c3c2s1 [Compound 34, 9-(Benzo[d][1,3]dioxol-5-ylamino)-N-(2-(diethylamino)ethyl)thiazolo[5,4-f]quinazoline-2-carboximidamide] | 1000 to 10000 |  |  |
| NC(=O)c1nc2ccc3ncnc(Nc4ccc(Br)cc4F)c3c2s1 [Compound 36, 9-(4-Bromo-2-fluorophenylamino)thiazolo[5,4-f]quinazoline-2-carboxamide] | 194 |  |  |
| COc1ccc(Nc2ncnc3ccc4nc(C5=NCCO5)sc4c23)cc1 [Compound 42, 2-(4,5-dihydrooxazol-2-yl)-N-(4-methoxyphenyl)thiazolo[5,4-f]quinazolin-9-amine] |  | 18700 |  |
| COC(=N)c1nc2ccc3ncnc(Nc4ccc(Br)cc4F)c3c2s1 [Compound 44, Methyl 9-(4-bromo-2-fluorophenylamino)thiazolo[5,4-f]quinazoline-2-carbimidate] | 3.6 |  | 6.55 |
| COC(=N)c1nc2ccc3ncnc(Nc4ccc5c(c4)OCO5)c3c2s1 [Compound 48, Methyl 9-(benzo[d][1,3]dioxol-5-ylamino)thiazolo[5,4-f]quinazoline-2-carbimidate] |  | 4.2 |  |
| COC(=N)c1nc2ccc3ncnc(Nc4ccc(OC)c(OC)c4)c3c2s1 [Compound 51, Methyl 9-(3,4-dimethoxyphenylamino)thiazolo[5,4-f]quinazoline-2-carbimidate] |  | 161 |  |
| COC(=N)c1nc2ccc3ncnc(Nc4ccc(Cl)c(Cl)c4)c3c2s1 [Compound 57, Methyl 9-(3,4-dichlorophenylamino)thiazolo[5,4-f]quinazoline-2-carbimidate] | 66.8 |  |  |
| COC(=N)c1nc2ccc3ncnc(Nc4cc(OC)c(OC)c(OC)c4)c3c2s1 [Compound 61, Methyl 9-(3,4,5-trimethoxyphenylamino)thiazolo[5,4-f]quinazoline-2-carbimidate] | 436 | 486 |  |
| COC(=N)c1nc2ccc3ncnc(Nc4cc(OC)cc(OC)c4)c3c2s1 [Compound 63, Methyl 9-(3,5-dimethoxyphenylamino)thiazolo[5,4-f]quinazoline-2-carbimidate] | 299 |  |  |
| COC(=N)c1nc2ccc3ncnc(Nc4ccc(Cl)cc4Cl)c3c2s1 [Compound 72, Methyl 9-(2,4-dichlorophenylamino)thiazolo[5,4-f]quinazoline-2-carbimidate] | 0.22 | 0.28 |  |
| COC(=N)c1nc2ccc3ncnc(Nc4ccc(OC)c([N+](=O)[O-])c4)c3c2s1 [Compound 73, Methyl 9-(4-methoxy-3-nitrophenylamino)thiazolo[5,4-f]quinazoline-2-carbimidate] | 124 |  |  |
| COC(=N)c1nc2ccc3ncnc(Nc4ccc(N5CCCC5)cc4)c3c2s1 [Compound 77, Methyl 9-(4-(pyrrolidin-1-yl)phenylamino)thiazolo[5,4-f]quinazoline-2-carbimidate] | 54.8 | 186 |  |

Second part, led by results:

| IC50 (DYRK1A) [nM] | IC50 (DYRK1B; [1]) [nM] | SMILES | IC50 (DYRK1B) [nM] |
| --- | --- | --- | --- |
| 13.1 | 19.2 | COC(=N)c1nc2ccc3ncnc(Nc4ccc(OC)cc4)c3c2s1 [Compound 45, Methyl 9-(4-methoxyphenylamino)thiazolo[5,4-f]quinazoline-2-carbimidate] |  |
| 2.76 | 3.66 | COC(=N)c1nc2ccc3ncnc(Nc4cc(Br)c5c(c4)OCO5)c3c2s1 [Compound 47, Methyl 9-(7-bromobenzo[d][1,3]dioxol-5-ylamino)thiazolo[5,4-f]quinazoline-2-carbimidate] |  |
| 8 |  | COC(=N)c1nc2ccc3ncnc(Nc4ccc5c(c4)OCCO5)c3c2s1 [Compound 49, Methyl 9-(2,3-dihydrobenzo[b][1,4]dioxin-6-ylamino)thiazolo[5,4-f]quinazoline-2-carbimidate] |  |
| 1.13 | 4.74 | COC(=N)c1nc2ccc3ncnc(Nc4ccc(Cl)cc4)c3c2s1 [Compound 56, Methyl 9-(4-chlorophenylamino)thiazolo[5,4-f]quinazoline-2-carbimidate] |  |
| 40.8 | 46.3 | C#Cc1cccc(Nc2ncnc3ccc4nc(C(=N)OC)sc4c23)c1 [Compound 58, Methyl 9-(3-ethynylphenylamino)thiazolo[5,4-f]quinazoline-2-carbimidate] |  |
| 4.91 | 5.68 | COC(=N)c1nc2ccc3ncnc(Nc4ccc(O)c([N+](=O)[O-])c4)c3c2s1 [Compound 60, Methyl 9-(4-hydroxy-3-nitrophenylamino)thiazolo[5,4-f]quinazoline-2-carbimidate] |  |
| 9.53 | 11.1 | COC(=N)c1nc2ccc3ncnc(Nc4ccc(OC)cc4OC)c3c2s1 [Compound 62, Methyl 9-(2,4-dimethoxyphenylamino)thiazolo[5,4-f]quinazoline-2-carbimidate] |  |
| 1.81 | 3.48 | COC(=N)c1nc2ccc3ncnc(Nc4ccccc4)c3c2s1 [Compound 64, Methyl 9-(phenylamino)thiazolo[5,4-f]quinazoline-2-carbimidate] |  |
| 0.98 | 2.83 | COC(=N)c1nc2ccc3ncnc(Nc4ccc(C)cc4)c3c2s1 [Compound 65, Methyl 9-(p-tolylamino)thiazolo[5,4-f]quinazoline-2-carbimidate] |  |
| 6.06 | 9.64 | COC(=N)c1nc2ccc3ncnc(Nc4ccc(F)cc4)c3c2s1 [Compound 66, Methyl 9-(4-fluorophenylamino)thiazolo[5,4-f]quinazoline-2-carbimidate] |  |
| 42.7 | 72 | COC(=N)c1nc2ccc3ncnc(Nc4cccc(C#N)c4)c3c2s1 [Compound 67, Methyl 9-(3-cyanophenylamino)thiazolo[5,4-f]quinazoline-2-carbimidate] |  |
| 0.16 | 0.24 | COC(=N)c1nc2ccc3ncnc(Nc4ccc(F)cc4Br)c3c2s1 [Compound 68, Methyl 9-(2-bromo-4-fluorophenylamino)thiazolo[5,4-f]quinazoline-2-carbimidate] |  |
| 3.89 | 7.69 | COC(=N)c1nc2ccc3ncnc(Nc4ccc(C#N)cc4)c3c2s1 [Compound 70, Methyl 9-(4-cyanophenylamino)thiazolo[5,4-f]quinazoline-2-carbimidate] |  |
| 39 | 93.8 | COC(=N)c1nc2ccc3ncnc(Nc4ccc(C(C)(C)C)cc4)c3c2s1 [Compound 74, Methyl 9-(4-tert-butylphenylamino)thiazolo[5,4-f]quinazoline-2-carbimidate] |  |
| 13.6 | 18.8 | COC(=N)c1nc2ccc3ncnc(Nc4cccc(Cl)c4)c3c2s1 [Compound 75, Methyl 9-(3-chlorophenylamino)thiazolo[5,4-f]quinazoline-2-carbimidate] |  |
| 35.6 | 64.3 | COC(=N)c1nc2ccc3ncnc(Nc4ccc(N(C)C)cc4)c3c2s1 [Compound 76, Methyl 9-(4-(dimethylamino)phenylamino)thiazolo[5,4-f]quinazoline-2-carbimidate] |  |
| 0.94 | 1.07 | COC(=N)c1nc2ccc3ncnc(Nc4ccc(F)cc4F)c3c2s1 [Compound 78, Methyl 9-(2,4-difluorophenylamino)thiazolo[5,4-f]quinazoline-2-carbimidate] |  |
| 8.63 | 11 | COC(=N)c1nc2ccc3ncnc(Nc4ccc(O)c(F)c4)c3c2s1 [Compound 79, Methyl 9-(3-fluoro-4-hydroxyphenylamino)thiazolo[5,4-f]quinazoline-2-carbimidate] |  |
